What is called pIC50 is the negative decadic logarithm of the IC50, by convention in mol/L.

pIC50: −log10 of the molar value.

We go through 29 molecules from patent US8664220B2, “Polycyclic compounds as lysophosphatidic acid receptor antagonists” (Amira Pharmaceuticals, Inc., priority 2009, dated 2014).

The target in the test is T1, human LPA1 (Homo sapiens, UniProt Q92633).
T1 construct: the full-length cDNA for human LPA1 was obtained by PCR of the reverse transcription reaction; expressed in transfected cells
T1 sequence (Q92633 whole entry): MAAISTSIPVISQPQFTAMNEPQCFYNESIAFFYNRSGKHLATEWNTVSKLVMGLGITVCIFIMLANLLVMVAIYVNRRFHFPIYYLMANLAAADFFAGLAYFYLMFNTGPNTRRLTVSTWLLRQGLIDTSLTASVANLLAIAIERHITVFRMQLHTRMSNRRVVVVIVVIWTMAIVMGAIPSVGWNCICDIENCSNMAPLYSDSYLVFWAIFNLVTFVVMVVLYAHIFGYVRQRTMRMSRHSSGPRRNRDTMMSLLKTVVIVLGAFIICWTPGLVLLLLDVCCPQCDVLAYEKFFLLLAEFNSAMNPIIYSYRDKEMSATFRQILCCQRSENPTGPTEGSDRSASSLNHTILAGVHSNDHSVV
The experiment in a line: LPA1 calcium flux assay. The format is cell-based. As to conditions: human LPA1 expressing CHO cells, stimulated with 10 nM LPA; read-out: HLPA1 Ca Flux IC50. Put shortly:
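CHO cells stably expressing human LPA1, serum-starved overnight and loaded with Calcium 4 dye in HBSS/20 mM Hepes/0.3% fatty-acid-free HSA, 1 h at 37 °C. Compounds pre-incubated 30 min at room temperature, then 10 nM LPA added; intracellular Ca2+ flux measured and IC50 from titration curves.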
As to `Cc1noc(-c2ccc(-c3ccc(C4(C(=O)O)CC4)cc3)cc2)c1Nc1cccc(-c2ccccc2F)n1` [Compound 1-95, 1-(4′-{4-[6-(2-Fluoro-phenyl)-pyridin-2-ylamino]-3-methyl-isoxazol-5-yl}-biphenyl-4-yl)-cyclopropanecarboxylic acid], the pIC50 was over 6.52.
As for `Cc1noc(-c2ccc(-c3ccc(C4(C(=O)O)CC4)cc3)cc2)c1Nc1cccc(-c2ccccc2C(F)(F)F)n1` [Compound 1-96, 1-(4′-{3-methyl-4-[6-(2-trifluoromethyl-phenyl)-pyridin-2-ylamino]-isoxazol-5-yl}-biphenyl-4-yl)-cyclopropanecarboxylic acid], the pIC50 is over 6.52.
As to `COc1ncccc1-c1cccc(Nc2c(C)noc2-c2ccc(-c3ccc(C4(C(=O)O)CC4)cc3)cc2)n1` [Compound 1-97, 1-{4′-[4-(2′-Methoxy-[2,3′]bipyridinyl-6-ylamino)-3-methyl-isoxazol-5-yl]-biphenyl-4-yl}-cyclopropanecarboxylic acid], the negative logarithm of the IC50 (pIC50) is over 6.52.
For the molecule `COc1ccc(-c2cccc(Nc3c(C)noc3-c3ccc(-c4ccc(C5(C(=O)O)CC5)cc4)cc3)n2)cn1` [Compound 1-98, 1-{4′-[4-(6′-Methoxy-[2,3′]bipyridinyl-6-ylamino)-3-methyl-isoxazol-5-yl]-biphenyl-4-yl}-cyclopropanecarboxylic acid], the pIC50 was over 6.52.
For the molecule `Cc1noc(-c2ccc(-c3ccc(C4(C(=O)O)CC4)cc3)cc2)c1Nc1cccc(-c2ccncc2)n1` [Compound 1-99, 1-{4′-[4-([2,4′]Bipyridinyl-6-ylamino)-3-methyl-isoxazol-5-yl]-biphenyl-4-yl}-cyclopropanecarboxylic acid], the negative-log IC50 (pIC50) is over 6.52.
Turning to `Cc1noc(-c2ccc(-c3ccc(C4(C(=O)O)CC4)cc3)cc2)c1NCc1cnc(-c2ccccc2)s1` [Compound 1-100, 1-(4′-{3-Methyl-4-[(2-phenyl-thiazol-5-ylmethyl)-amino]-isoxazol-5-yl}-biphenyl-4-yl)-cyclopropanecarboxylic acid], the pIC50 was over 6.52.
For `Cc1noc(-c2ccc(-c3ccc(C4(C(=O)O)CC4)cc3)cc2)c1Nc1cccc(-c2ccccc2C(F)(F)F)c1` [Compound 1-101, 1-{4′-[3-Methyl-4-(2′-trifluoromethyl-biphenyl-3-ylamino)-isoxazol-5-yl]-biphenyl-4-yl}-cyclopropanecarboxylic acid], the negative logarithm of the IC50 (pIC50) was over 6.52.
In the case of `COc1ccc(-c2cccc(Nc3c(C)noc3-c3ccc(-c4ccc(C5(C(=O)O)CC5)cc4)cc3)c2)cn1` [Compound 1-102, 1-(4′-{4-[3-(6-Methoxy-pyridin-3-yl)-phenylamino]-3-methyl-isoxazol-5-yl}-biphenyl-4-yl)-cyclopropanecarboxylic acid], the negative-log IC50 (pIC50) was over 6.52.
On to `Cc1noc(-c2ccc(-c3ccc(C4(C(=O)O)CC4)cc3)cc2)c1Nc1cccc(-c2cccnc2)c1` [Compound 1-103, 1-{4′-[3-Methyl-4-(3-pyridin-3-yl-phenylamino)-isoxazol-5-yl]-biphenyl-4-yl}-cyclopropanecarboxylic acid], for which the negative logarithm of the IC50 (pIC50) was over 6.52.
`COc1cncc(-c2cccc(Nc3c(C)noc3-c3ccc(-c4ccc(C5(C(=O)O)CC5)cc4)cc3)c2)c1` [Compound 1-104, 1-(4′-{4-[3-(5-Methoxy-pyridin-3-yl)-phenylamino]-3-methyl-isoxazol-5-yl}-biphenyl-4-yl)-cyclopropanecarboxylic acid]: the pIC50 was over 6.52.
On to `Cc1noc(-c2ccc(-c3ccc(C4(C(=O)O)CC4)cc3)cc2)c1Nc1cccc(N(C)c2ccccc2)n1` [Compound 1-105, 1-(4′-{3-Methyl-4-[6-(methyl-phenyl-amino)-pyridin-2-ylamino]-isoxazol-5-yl}-biphenyl-4-yl)-cyclopropanecarboxylic acid], for which the negative-log IC50 (pIC50) was 6.00 to 6.52.
The result for `Cc1noc(-c2ccc(-c3ccc(C4(C(=O)O)CC4)cc3)cc2)c1Nc1cccc(N(C)c2ccccc2)c1` [Compound 1-106, 1-(4′-{3-Methyl-4-[3-(methyl-phenyl-amino)-phenylamino]-isoxazol-5-yl}-biphenyl-4-yl)-cyclopropanecarboxylic acid] reads over 6.52.
On to `Cc1noc(-c2ccc(-c3ccc(C4(C(=O)O)CC4)cc3)cc2)c1Nc1cncc(-c2ccccc2)c1` [Compound 1-107, 1-{4′-[3-Methyl-4-(5-phenyl-pyridin-3-ylamino)-isoxazol-5-yl]-biphenyl-4-yl}-cyclopropanecarboxylic acid], for which the negative logarithm of the IC50 (pIC50) was over 6.52.
Consider `Cc1noc(-c2ccc(-c3ccc(C4(C(=O)O)CC4)cc3)cc2)c1Nc1cncc(-c2cccc(F)c2)c1` [Compound 1-108, 1-(4′-{4-[5-(3-Fluoro-phenyl)-pyridin-3-ylamino]-3-methyl-isoxazol-5-yl}-biphenyl-4-yl)-cyclopropanecarboxylic acid], for which the negative-log IC50 (pIC50) was over 6.52.
For the molecule `Cc1noc(-c2ccc(-c3ccc(C4(C(=O)O)CC4)cc3)cc2)c1Nc1cccc(-c2ccccc2Cl)n1` [Compound 1-109, 1-(4′-{4-[6-(2-Chloro-phenyl)-pyridin-2-ylamino]-3-methyl-isoxazol-5-yl}-biphenyl-4-yl)-cyclopropanecarboxylic acid], the negative-log IC50 (pIC50) was over 6.52.
With `Cc1noc(-c2ccc(-c3ccc(C4(C(=O)O)CC4)cc3)cc2)c1C(O)c1cccc(-c2ccccc2)n1` (centres unmarked) [Compound 1-110, 1-(4′-{4-[Hydroxy-(6-phenyl-pyridin-2-yl)-methyl]-3-methyl-isoxazol-5-yl}-biphenyl-4-yl)-cyclopropanecarboxylic acid], the pIC50 is over 6.52.
Consider `Cc1noc(-c2ccc(-c3ccc(C4(C(=O)O)CC4)cc3)cc2)c1Nc1ccnc(-c2ccccc2)c1` [Compound 1-111, 1-{4′-[3-Methyl-4-(2-phenyl-pyridin-4-ylamino)-isoxazol-5-yl]-biphenyl-4-yl}-cyclopropanecarboxylic acid], for which the pIC50 is 6.00 to 6.52.
The value for `Cc1noc(-c2ccc(-c3ccc(C4(C(=O)O)CC4)cc3)cc2)c1Nc1ccnc(-c2cccc(F)c2)c1` [Compound 1-112, 1-(4′-{4-[2-(3-Fluoro-phenyl)-pyridin-4-ylamino]-3-methyl-isoxazol-5-yl}-biphenyl-4-yl)-cyclopropanecarboxylic acid] was 4.30 to 6.00; that for `Cc1noc(-c2ccc(-c3ccc(C4(C(=O)O)CC4)cc3)cc2)c1Nc1cncc(-c2ccccc2Cl)c1` [Compound 1-113, 1-(4′-{4-[5-(2-Chloro-phenyl)-pyridin-3-ylamino]-3-methyl-isoxazol-5-yl}-biphenyl-4-yl)-cyclopropanecarboxylic acid] was over 6.52.
The value for `Cc1noc(-c2ccc(-c3ccc(C4(C(=O)O)CC4)cc3)cc2)c1Nc1ccnc(-c2ccccc2Cl)c1` [Compound 1-114, 1-(4′-{4-[2-(2-Chloro-phenyl)-pyridin-4-ylamino]-3-methyl-isoxazol-5-yl}-biphenyl-4-yl)-cyclopropanecarboxylic acid] was over 6.52.
The result for `Cc1noc(-c2ccc(-c3ccc(C4(C(=O)O)CC4)cc3)cc2)c1Nc1nccc(-c2ccccc2)n1` [Compound 1-115, 1-{4′-[3-Methyl-4-(4-phenyl-pyrimidin-2-ylamino)-isoxazol-5-yl]-biphenyl-4-yl}-cyclopropanecarboxylic acid] reads over 6.52.
For the molecule `Cc1noc(-c2ccc(-c3ccc(C4(C(=O)O)CC4)cc3)cc2)c1Nc1cc(-c2ccccc2)ccn1` [Compound 1-116, 1-{4′-[3-Methyl-4-(4-phenyl-pyridin-2-ylamino)-isoxazol-5-yl]-biphenyl-4-yl}-cyclopropanecarboxylic acid], the negative-log IC50 (pIC50) is over 6.52.
With `Cc1noc(-c2ccc(-c3ccc(C4(C(=O)O)CC4)cc3)cc2)c1Nc1cccc(-c2ccccc2CN(C)C)c1` [Compound 1-117, 1-{4′-[4-(2′-Dimethylaminomethyl-biphenyl-3-ylamino)-3-methyl-isoxazol-5-yl]-biphenyl-4-yl}-cyclopropanecarboxylic acid], the pIC50 was over 6.52.
As to `Cc1noc(-c2ccc(-c3ccc(C4(C(=O)O)CC4)cc3)cc2)c1Nc1cncc(-c2cccc(C(F)(F)F)c2)c1` [Compound 1-118, 1-(4′-{3-Methyl-4-[5-(3-trifluoromethyl-phenyl)-pyridin-3-ylamino]-isoxazol-5-yl}-biphenyl-4-yl)-cyclopropanecarboxylic acid], the negative-log IC50 (pIC50) is over 6.52.
Regarding `Cc1noc(-c2ccc(-c3ccc(C4(C(=O)O)CC4)cc3)cc2)c1Nc1cncc(-c2ccc(C(F)(F)F)cc2)c1` [Compound 1-119, 1-(4′-{3-Methyl-4-[5-(4-trifluoromethyl-phenyl)-pyridin-3-ylamino]-isoxazol-5-yl}-biphenyl-4-yl)-cyclopropanecarboxylic acid], the pIC50 is over 6.52.
The value for `Cc1noc(-c2ccc(-c3ccc(C4(C(=O)O)CC4)cc3)cc2)c1N(c1cccc(Cc2ccccc2)n1)c1cccc(Cc2ccccc2)n1` [Compound 1-120, 1-(4′-{4-[Bis-(6-benzyl-pyridin-2-yl)-amino]-3-methyl-isoxazol-5-yl}-biphenyl-4-yl)-cyclopropanecarboxylic acid] was 4.30 to 6.00.
The value for `Cc1noc(-c2ccc(-c3ccc(C4(C(=O)O)CC4)cc3)cc2)c1NC(=O)c1cccc(-c2ccccc2CN(C)C)c1` [Compound 1-121, 1-(4′-{4-[(2′-Dimethylaminomethyl-biphenyl-3-carbonyl)-amino]-3-methyl-isoxazol-5-yl}-biphenyl-4-yl)-cyclopropanecarboxylic acid] was under 4.30; that for `Cc1noc(-c2ccc(-c3ccc(C4(C(=O)O)CCC4)cc3)cc2)c1Nc1cccc(-c2ccccc2)n1` [Compound 1-122, 1-{4′-[3-Methyl-4-(6-phenyl-pyridin-2-ylamino)-isoxazol-5-yl]-biphenyl-4-yl}-cyclobutanecarboxylic acid] was over 6.52.
In the case of `Cc1noc(-c2ccc(-c3ccc(C4(C(=O)O)CC4)cc3)cc2)c1Nc1cccc(-n2cccn2)n1` [Compound 1-123, 1-{4′-[3-Methyl-4-(6-pyrazol-1-yl-pyridin-2-ylamino)-isoxazol-5-yl]-biphenyl-4-yl}-cyclopropanecarboxylic acid], the negative logarithm of the IC50 (pIC50) was over 6.52.
